According to US20120329787A1, “FUNGICIDAL PYRANONES AND OXAZINONES” (E.I. DU PONT DE NEMOURS AND COMPANY, priority 2011, published 2012):
Marks after values point to notes of the source that are not given here.

Assays:
Assay type in all cases: in vivo
Botrytis cinerea = experiment: Test A: tomato Botrytis, spray on tomato seedlings the day before inoculation; conditions: for pest or weed control at 200 ppm: Botrytis cinerea, 120 h, read-out: Test A rating (100 = 100% disease control, 0 = no disease control)
Source text: General protocol for preparing test suspensions for Tests A-I: the test compounds were first dissolved in acetone in an amount equal to 3% of the final volume and then suspended at the desired concentration (in ppm) in acetone and purified water (50/50 mix by volume) containing 250 ppm of the surfactant Trem® 014 (polyhydric alcohol esters). The resulting test suspensions were then used in Tests A-I. Spraying a 200 ppm test suspension to the point of run-off on the test plants was the equivalent of a rate of 500 g/ha. […] (An asterisk “*” next to the rating value indicates a 40 ppm test suspension was used.) The test suspension was sprayed to the point of run-off on tomato seedlings. The following day, the seedlings were inoculated with a spore suspension of Botrytis cinerea (the causal agent of tomato Botrytis) and incubated in a saturated atmosphere at 20° C. for 48 h, and then moved to a growth chamber at 24° C. for 3 additional days, after which time visual disease ratings were made. […] A dash (-) indicates no test results. All results are for 200 ppm except where followed by an asterisk “*”, which indicates a 40 ppm.

Alternaria solani = experiment: Test B: tomato early blight, spray on tomato seedlings the day before inoculation; conditions: for pest or weed control at 200 ppm: Alternaria solani, 168 h, read-out: Test B rating (100 = 100% disease control, 0 = no disease control)
Source text: General protocol for preparing test suspensions for Tests A-I: the test compounds were first dissolved in acetone in an amount equal to 3% of the final volume and then suspended at the desired concentration (in ppm) in acetone and purified water (50/50 mix by volume) containing 250 ppm of the surfactant Trem® 014 (polyhydric alcohol esters). The resulting test suspensions were then used in Tests A-I. Spraying a 200 ppm test suspension to the point of run-off on the test plants was the equivalent of a rate of 500 g/ha. […] (An asterisk “*” next to the rating value indicates a 40 ppm test suspension was used.) The test suspension was sprayed to the point of run-off on tomato seedlings. The following day, the seedlings were inoculated with a spore suspension of Alternaria solani (the causal agent of tomato early blight) and incubated in a saturated atmosphere at 27° C. for 48 h, and then moved to a growth chamber at 20° C. for 5 days, after which time visual disease ratings were made. […] A dash (-) indicates no test results. All results are for 200 ppm except where followed by an asterisk “*”, which indicates a 40 ppm.

Septoria nodorum = experiment: Test E: Septoria glume blotch, spray on wheat seedlings the day before inoculation; conditions: for pest or weed control at 200 ppm: Parastagonospora nodorum, 264 h, read-out: Test E rating (100 = 100% disease control, 0 = no disease control)
Source text: General protocol for preparing test suspensions for Tests A-I: the test compounds were first dissolved in acetone in an amount equal to 3% of the final volume and then suspended at the desired concentration (in ppm) in acetone and purified water (50/50 mix by volume) containing 250 ppm of the surfactant Trem® 014 (polyhydric alcohol esters). The resulting test suspensions were then used in Tests A-I. Spraying a 200 ppm test suspension to the point of run-off on the test plants was the equivalent of a rate of 500 g/ha. […] (An asterisk “*” next to the rating value indicates a 40 ppm test suspension was used.) The test suspension was sprayed to the point of run-off on wheat seedlings. […] A dash (-) indicates no test results. All results are for 200 ppm except where followed by an asterisk “*”, which indicates a 40 ppm.

[1] = system: Puccinia recondita f. sp. tritici; experiment: Test H: wheat leaf rust, spray on wheat seedlings the day before inoculation; conditions: sprayed before inoculation; for pest or weed control at 200 ppm: Puccinia recondita, 168 h, read-out: Test H rating (100 = 100% disease control, 0 = no disease control)
Source text: General protocol for preparing test suspensions for Tests A-I: the test compounds were first dissolved in acetone in an amount equal to 3% of the final volume and then suspended at the desired concentration (in ppm) in acetone and purified water (50/50 mix by volume) containing 250 ppm of the surfactant Trem® 014 (polyhydric alcohol esters). The resulting test suspensions were then used in Tests A-I. Spraying a 200 ppm test suspension to the point of run-off on the test plants was the equivalent of a rate of 500 g/ha. […] (An asterisk “*” next to the rating value indicates a 40 ppm test suspension was used.) The test suspension was sprayed to the point of run-off on wheat seedlings. The following day, the seedlings were inoculated with a spore suspension of Puccinia recondita f. sp. tritici (the causal agent of wheat leaf rust) and incubated in a saturated atmosphere at 20° C. for 24 h, and then moved to a growth chamber at 20° C. for 6 days, after which time visual disease ratings were made Results for Tests A-I are given in Table A. […] A dash (-) indicates no test results. All results are for 200 ppm except where followed by an asterisk “*”, which indicates a 40 ppm.

[2] = system: Puccinia recondita f. sp. tritici; experiment: Test G: wheat leaf rust, spray on wheat seedlings after inoculation (curative); conditions: sprayed after inoculation; for pest or weed control at 200 ppm: Puccinia recondita, 96 h, read-out: Test G rating (100 = 100% disease control, 0 = no disease control)
Source text: General protocol for preparing test suspensions for Tests A-I: the test compounds were first dissolved in acetone in an amount equal to 3% of the final volume and then suspended at the desired concentration (in ppm) in acetone and purified water (50/50 mix by volume) containing 250 ppm of the surfactant Trem® 014 (polyhydric alcohol esters). The resulting test suspensions were then used in Tests A-I. Spraying a 200 ppm test suspension to the point of run-off on the test plants was the equivalent of a rate of 500 g/ha. […] (An asterisk “*” next to the rating value indicates a 40 ppm test suspension was used.) Wheat seedlings were inoculated with a spore suspension of Puccinia recondita f. sp. tritici (the causal agent of wheat leaf rust) and incubated in a saturated atmosphere at 20° C. for 24 h, and then moved to a growth chamber at 20° C. for 2 days. At the end of this time, the test suspension was sprayed to the point of run-off, and then the seedlings were moved to a growth chamber at 20° C. for 4 days after which time visual disease ratings were made. […] A dash (-) indicates no test results. All results are for 200 ppm except where followed by an asterisk “*”, which indicates a 40 ppm.

[3] = system: Erysiphe graminis f. sp. tritici; experiment: Test I: wheat powdery mildew, spray on wheat seedlings the day before inoculation; conditions: 200 ppm test suspension; for pest or weed control at 200 ppm: Blumeria graminis, 168 h, read-out: Test I rating (100 = 100% disease control, 0 = no disease control)
Source text: General protocol for preparing test suspensions for Tests A-I: the test compounds were first dissolved in acetone in an amount equal to 3% of the final volume and then suspended at the desired concentration (in ppm) in acetone and purified water (50/50 mix by volume) containing 250 ppm of the surfactant Trem® 014 (polyhydric alcohol esters). The resulting test suspensions were then used in Tests A-I. Spraying a 200 ppm test suspension to the point of run-off on the test plants was the equivalent of a rate of 500 g/ha. […] (An asterisk “*” next to the rating value indicates a 40 ppm test suspension was used.) The test suspension was sprayed to the point of run-off on wheat seedlings. The following day, the seedlings were inoculated with a spore dust of Erysiphe graminis f. sp. tritici, (the causal agent of wheat powdery mildew) and incubated in a growth chamber at 20° C. for 7 days, after which time visual disease ratings were made. […] A dash (-) indicates no test results. All results are for 200 ppm except where followed by an asterisk “*”, which indicates a 40 ppm.

Septoria tritici = experiment: Test F: wheat leaf blotch, spray on wheat seedlings the day before inoculation; conditions: for pest or weed control at 200 ppm: Zymoseptoria tritici, 504 h, read-out: Test F rating (100 = 100% disease control, 0 = no disease control)
Source text: General protocol for preparing test suspensions for Tests A-I: the test compounds were first dissolved in acetone in an amount equal to 3% of the final volume and then suspended at the desired concentration (in ppm) in acetone and purified water (50/50 mix by volume) containing 250 ppm of the surfactant Trem® 014 (polyhydric alcohol esters). The resulting test suspensions were then used in Tests A-I. Spraying a 200 ppm test suspension to the point of run-off on the test plants was the equivalent of a rate of 500 g/ha. […] (An asterisk “*” next to the rating value indicates a 40 ppm test suspension was used.) The test suspension was sprayed to the point of run-off on wheat seedlings. The following day, the seedlings were inoculated with a spore suspension of Septoria tritici (the causal agent of wheat leaf blotch) and incubated in a saturated atmosphere at 24° C. for 48 h, and then the seedlings were moved to a growth chamber at 20° C. for 19 additional days, after which time visual disease ratings were made. […] A dash (-) indicates no test results. All results are for 200 ppm except where followed by an asterisk “*”, which indicates a 40 ppm.

[4] = 40 ppm test suspension (asterisk)

Row | SMILES | Test A rating (100 = 100% disease control, 0 = no disease control) (Botrytis cinerea; [4]) | Test B rating (100 = 100% disease control, 0 = no disease control) (Alternaria solani; [4]) | Test E rating (100 = 100% disease control, 0 = no disease control) (Septoria nodorum; [4]) | Test H rating (100 = 100% disease control, 0 = no disease control) [1, 4] | Test G rating (100 = 100% disease control, 0 = no disease control) [2, 4] | Test I rating (100 = 100% disease control, 0 = no disease control) [3] [%] | Test F rating (100 = 100% disease control, 0 = no disease control) (Septoria tritici; [4]) | pest or weed control at 200 ppm (Botrytis cinerea; 200 ppm test suspension) [%] | pest or weed control at 200 ppm (Alternaria solani; 200 ppm test suspension) [%] | pest or weed control at 200 ppm (Septoria nodorum; 200 ppm test suspension) [%] | pest or weed control at 200 ppm ([1]; 200 ppm test suspension) [%] | pest or weed control at 200 ppm ([2]; 200 ppm test suspension) [%] | pest or weed control at 200 ppm [3] [%] | pest or weed control at 200 ppm (Septoria tritici; 200 ppm test suspension) [%] | Test A rating (100 = 100% disease control, 0 = no disease control) (Botrytis cinerea; 200 ppm test suspension) [%] | Test B rating (100 = 100% disease control, 0 = no disease control) (Alternaria solani; 200 ppm test suspension) [%] | Test E rating (100 = 100% disease control, 0 = no disease control) (Septoria nodorum; 200 ppm test suspension) [%] | Test H rating (100 = 100% disease control, 0 = no disease control) ([1]; 200 ppm test suspension) [%] | Test G rating (100 = 100% disease control, 0 = no disease control) ([2]; 200 ppm test suspension) [%] | Test F rating (100 = 100% disease control, 0 = no disease control) (Septoria tritici; 200 ppm test suspension) [%]
1 | Cc1oc(=O)c(-c2ccccc2F)c(-c2ccccc2Cl)c1-c1ccc(F)cc1F [Compound 35] | 100* % | 68* % | 0* % | 0* % | 99* % | 97 | 99* % | – | – | – | – | – | – | – | – | – | – | – | – | –
2 | COc1cc(OC)cc(-c2c(-c3c(F)cc(OC)cc3F)c(C)oc(=O)c2-c2ccccc2F)c1 [Compound 39] | 100* % | 100* % | 100* % | 100* % | 82* % | 79 | 100* % | – | – | – | – | – | – | – | – | – | – | – | – | –
3 | Cc1oc(=O)c(C)c(-c2ccc(F)cc2F)c1Br [Compound 41, 5-bromo-4-(2,4-difluorophenyl)-3,6-dimethyl-2H-pyran-2-one] | – | – | – | – | – | – | – | 67 | 0 | 0 | 0 | 0 | 0 | 0 | – | – | – | – | – | –
4 | COc1cc(OC)cc(-c2c(C)oc(=O)c(C)c2-c2ccc(F)cc2F)c1 [Compound 42, 4-(2,4-difluorophenyl)-5-(3,5-dimethoxyphenyl)-3,6-dimethyl-2H-pyran-2-one] | – | – | – | – | – | – | – | 98 | 0 | 0 | 100 | 0 | 99 | 100 | – | – | – | – | – | –
5 | COc1cc(OC)cc(-c2c(C)oc(=O)c(C)c2-c2c(F)cc(OC)cc2F)c1 [Compound 43] | – | – | – | – | – | 100 | – | – | – | – | – | – | – | – | 100 | 100 | 100 | 100 | 98 | 100
6 | COc1cc(F)c(-c2c(C)oc(=O)c(C)c2-c2c(Cl)c(OC)cc(OC)c2Cl)c(F)c1 [Compound 44] | – | – | – | – | – | 0 | – | – | – | – | – | – | – | – | 79 | 0 | 0 | 96 | 26 | 73
7 | COc1cc(OC)cc(-c2c(-c3ccc(F)cc3Cl)c(C)oc(=O)c2C)c1 [Compound 46] | – | – | – | – | – | 99 | – | – | – | – | – | – | – | – | 100 | 98 | 95 | 100 | 79 | 100
